Measurements taken from PubChem BioAssay (NCI).
Values joined by “and” are separate entries in the source; they are usually repeats but may differ in a detail not shown here. Equal values may be shown once.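 Following 48 hours of exposure in 96-well plates, responses at five concentrations were used to interpolate endpoints linearly. The concentration for 50% growth inhibition is given as GI50. TGI: concentration producing complete growth inhibition.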

What was measured:
Assay in all cases: NCI tumour cell line growth inhibition, 48 h
[1] = system: MCF7 breast
[2] = system: NCI-H460 lung
[3] = system: BT-549 breast
[4] = system: NCI/ADR-RES ovarian
[5] = system: HOP-62 NSCLC
[6] = system: UO-31 renal
[7] = system: U251 CNS
[8] = system: SR leukemia
[9] = system: CAKI-1 renal
[10] = system: DU-145 prostate

For `COc1ccc(-c2cc(=O)oc3c4c(ccc23)OCN(Cc2ccc(F)cc2)C4)cc1`, the GI50 [1] was 15.7 µM, the TGI [1] was 34.5 µM and the GI50 [2] was 15.9 µM. The TGI [2] was 30.2 µM, the GI50 [3] was 14.6 µM and the TGI [3] was 31.3 µM. For the same compound, the GI50 [4] was 17.2 µM, the TGI [4] was 42.9 µM and the GI50 [5] was 14.4 µM. For the same compound, the TGI [5] was 30.8 µM, the GI50 [6] was 7.26 µM and the TGI [6] was 37.9 µM. It also gave a GI50 [7] of 14.8 µM, a TGI [7] of 29 µM and a GI50 [8] of 13 µM. The TGI [8] was 39.9 µM, the GI50 [9] was 14.7 µM and the TGI [9] was 44.3 µM. For the same compound, the GI50 [10] was 24.3 µM and the TGI [10] was 59.9 µM.
In the case of `Cc1cccc(NC2=C(Cl)C(=O)c3nc(C)ccc3C2=O)c1`, the GI50 [1] is reported as 0.656 µM, the TGI [1] is reported as 3.06 µM and the GI50 [2] is reported as 1.64 µM. It also gave a TGI [2] of 3.82 µM, a GI50 [3] of 1.41 µM and a TGI [3] of 2.77 µM. It also gave a GI50 [4] of 1.58 µM, a TGI [4] of 4.14 µM and a GI50 [5] of 0.529 µM. It also gave a TGI [5] of 2.88 µM, a GI50 [6] of 1.29 µM and a TGI [6] of 2.59 µM. It also gave a GI50 [7] of 1.09 µM, a TGI [7] of 2.67 µM and a GI50 [8] of 1.22 µM. For the same compound, the TGI [8] was greater than 100 µM, the GI50 [9] was 1.06 µM and the TGI [9] was 2.26 µM. For the same compound, the GI50 [10] was 1.27 µM and the TGI [10] was 2.55 µM.
With `CCSc1nc(N=Cc2ccccc2O)c2cn[nH]c2n1` the GI50 [1] was 19.9 µM, the TGI [1] was 59.4 µM and the GI50 [2] was 30.7 µM. The TGI [2] was greater than 100 µM, the GI50 [3] was 40.6 µM and the TGI [3] was greater than 100 µM. The GI50 [4] was 20.3 µM, the TGI [4] was 63.6 µM and the GI50 [5] was 54.5 µM. The TGI [5] was greater than 100 µM, the GI50 [6] was 61.6 µM and the TGI [6] was greater than 100 µM. It also gave a GI50 [7] of 44.4 µM, a TGI [7] greater than 100 µM and a GI50 [8] of 7.31 µM. It also gave a TGI [8] greater than 100 µM, a GI50 [9] of 19.3 µM and a TGI [9] of 82.4 µM. The GI50 [10] was 72.1 µM and the TGI [10] was greater than 100 µM.
For `NC(=S)N/N=C/c1ncccc1O`, the GI50 [1] was 2.55 µM, the TGI [1] was > 37.5 µM and 183 µM and the GI50 [2] was 3.17 µM. For the same compound, the TGI [2] was 48.5 µM and 25.2 µM, the GI50 [3] was 1.58 µM and the TGI [3] was greater than 1000 µM. The GI50 [4] was 2.21 µM, the TGI [4] was 38 µM and 6.56 µM and the GI50 [5] was 2.6 µM. The TGI [5] was 11.1 µM and 16.7 µM, the GI50 [6] was 1.48 µM and the TGI [6] was > 33.8 µM and 6.46 µM. For the same compound, the GI50 [7] was 3.35 µM, the TGI [7] was > 89.9 µM and 557 µM and the GI50 [8] was 0.585 µM. The TGI [8] was 28.8 µM and > 148 µM, the GI50 [9] was 2.59 µM and the TGI [9] was > 56.7 µM and 63.9 µM. For the same compound, the GI50 [10] was 1.46 µM and 0.77 µM and the TGI [10] was 17.1 µM and > 114 µM.
`COc1ccc(Cl)cc1NC(=O)c1ccc(NC2=C(Cl)C(=O)N(Cc3ccccc3)C2=O)cc1` was tested, and the GI50 [1] was 5.92 µM, the TGI [1] was 34.3 µM and the GI50 [2] was 9.41 µM. The TGI [2] was greater than 100 µM, the GI50 [3] was 28.7 µM and the TGI [3] was greater than 100 µM. The GI50 [4] was 55.1 µM, the TGI [4] was greater than 100 µM and the GI50 [5] was greater than 100 µM. It also gave a TGI [5] greater than 100 µM, a GI50 [6] greater than 100 µM and a TGI [6] greater than 100 µM. For the same compound, the GI50 [7] was 28.3 µM, the TGI [7] was greater than 100 µM and the GI50 [8] was 2.76 µM. It also gave a TGI [8] of 9.87 µM, a GI50 [9] greater than 100 µM and a TGI [9] greater than 100 µM. It also gave a GI50 [10] greater than 100 µM and a TGI [10] greater than 100 µM.
